Laboratory results published in patent US20100168102A9, “Amide Derivatives as Kinase Inhibitors” (Devgen NV, priority 2005, published 2010).
Where two headings read alike, the source gives them in different places.

Columns and labels:
PKC epsilon = target: T1, PKC epsilon (Homo sapiens, UniProt Q02156); assay: Biochemical assay for PKC epsilon (fluorescence polarization, Protein Kinase C Assay Kit, Red); details: read-out: IC50 μM PKCε
T1 construct: purchased Invitrogen P2282
T1 sequence (Q02156 1-737): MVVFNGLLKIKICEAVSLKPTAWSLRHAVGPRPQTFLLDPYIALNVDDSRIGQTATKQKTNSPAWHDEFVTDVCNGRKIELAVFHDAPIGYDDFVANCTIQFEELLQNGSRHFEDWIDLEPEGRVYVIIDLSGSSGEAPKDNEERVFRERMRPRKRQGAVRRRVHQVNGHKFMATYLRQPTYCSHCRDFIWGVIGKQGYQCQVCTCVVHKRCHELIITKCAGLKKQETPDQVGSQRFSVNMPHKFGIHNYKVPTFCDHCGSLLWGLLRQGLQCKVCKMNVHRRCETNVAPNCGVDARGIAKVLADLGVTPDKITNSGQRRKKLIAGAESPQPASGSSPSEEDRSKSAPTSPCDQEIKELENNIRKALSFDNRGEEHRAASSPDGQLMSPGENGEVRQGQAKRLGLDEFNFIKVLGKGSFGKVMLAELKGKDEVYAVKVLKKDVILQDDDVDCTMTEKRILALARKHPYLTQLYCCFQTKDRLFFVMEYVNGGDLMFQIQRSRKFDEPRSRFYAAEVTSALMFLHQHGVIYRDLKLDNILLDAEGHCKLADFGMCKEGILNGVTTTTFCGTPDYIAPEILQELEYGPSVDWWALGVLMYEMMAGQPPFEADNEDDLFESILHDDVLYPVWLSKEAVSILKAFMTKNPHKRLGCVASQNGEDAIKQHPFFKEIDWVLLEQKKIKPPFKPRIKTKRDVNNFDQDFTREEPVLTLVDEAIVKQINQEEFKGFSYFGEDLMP
Summary of the method: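 PKC epsilon at 10 ng/ml final was preincubated 30 min at room temperature with compound in HEPES pH 7.4 with DTT and Triton X-100. ATP/protein substrate was then added in buffer with MgCl2 and CaCl2 for 80 min. The reaction was stopped with EDTA, phosphorylation was detected by fluorescence polarization with rhodamine tracer and anti-phosphoserine antibody, and IC50 values came from curve fits.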

human ROCKα/ROCKII mix = target: T2, human ROCKα/ROCKII mix (Homo sapiens, UniProt O75116); assay: Biochemical assay for ROCK (fluorescence polarization, ROCK IMAP Kit)
T2 construct: purchased Upstate Biotechnology 14-451

[1] = Table 2, compounds of Formula XIII
[2] = compounds of Formula XIV, Table 3

T2 sequence (O75116 11-552 limits assumed): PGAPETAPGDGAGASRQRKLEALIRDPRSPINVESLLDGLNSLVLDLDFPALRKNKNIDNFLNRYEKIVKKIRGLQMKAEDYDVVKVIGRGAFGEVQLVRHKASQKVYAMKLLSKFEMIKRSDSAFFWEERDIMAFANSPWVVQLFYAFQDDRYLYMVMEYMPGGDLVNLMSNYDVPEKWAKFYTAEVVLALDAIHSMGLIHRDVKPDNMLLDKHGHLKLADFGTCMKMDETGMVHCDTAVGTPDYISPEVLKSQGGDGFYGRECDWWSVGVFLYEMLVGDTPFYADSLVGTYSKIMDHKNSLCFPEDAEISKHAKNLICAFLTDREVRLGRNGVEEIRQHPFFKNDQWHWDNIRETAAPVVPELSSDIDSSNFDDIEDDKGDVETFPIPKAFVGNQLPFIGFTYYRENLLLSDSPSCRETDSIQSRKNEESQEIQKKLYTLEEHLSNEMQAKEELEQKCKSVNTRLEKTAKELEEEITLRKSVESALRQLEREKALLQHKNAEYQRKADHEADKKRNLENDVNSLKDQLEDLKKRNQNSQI

| Compound | IC50 (PKC epsilon) | IC50 (human ROCKα/ROCKII mix) | further results |
| --- | --- | --- | --- |
| NC(c1ccc(C(=O)Nc2ccncc2)cc1)C1CCCN1C(=O)C1(c2ccc(Cl)cc2Cl)CC1 (stereo not drawn) [Compound 596, 4-(Amino-{1-[1-(2,4-dichloro-phenyl)-cyclopropanecarbonyl]-pyrrolidin-2-yl}-methyl)-N-pyridin-4-yl-benzamide] | 5 to 50 µM | 0.5 to 5 µM | – |
| NC(c1ccc(C(=O)Nc2ccncc2)cc1)C1CCCN1C(=O)Cc1ccccc1F (stereo not drawn) [Compound 567, 4-(Amino-{1-[2-(2-fluoro-phenyl)-acetyl]-pyrrolidin-2-yl}-methyl)-N-pyridin-4-yl-benzamide] | 5 to 50 µM | 0.05 to 0.5 µM | – |
| NC(CNC(=O)[C@@H]1CCC(=O)N1)c1ccc(C(=O)Nc2ccncc2)cc1 (stereo partly drawn) [Compound 67, 5-Oxo-pyrrolidine-2-(S)-carboxylic acid {2-amino-2-[4-(pyridin-4-ylcarbamoyl)-phenyl]-ethyl}-amide] | – | – | IC50 (PKC epsilon; [1]): 5 to 50 µM; IC50 (human ROCKα/ROCKII mix; [1]): 0.5 to 5 µM |
| NC(c1ccc(C(=O)Nc2ccncc2)cc1)C1CCCN1C(=O)C1(c2ccc(F)cc2Cl)CC1 (stereo not drawn) [Compound 600, 4-(Amino-{1-[1-(2-chloro-4-fluoro-phenyl)-cyclopropanecarbonyl]-pyrrolidin-2-yl}-methyl)-N-pyridin-4-yl-benzamide] | 0.5 to 5 µM | 0.5 to 5 µM | – |
| NC(c1ccc(C(=O)Nc2ccncc2)cc1)C1CCCN1C(=O)Cc1ccc(O)c([N+](=O)[O-])c1 (stereo not drawn) [Compound 540, 4-(Amino-{1-[2-(4-hydroxy-3-nitro-phenyl)-acetyl]-pyrrolidin-2-yl}-methyl)-N-pyridin-4-yl-benzamide] | 5 to 50 µM | 0.5 to 5 µM | – |
| 4-{1-amino-2-[2-(4- trifluoromethyl-phenyl)- ethylcarbamoyl]-ethyl}-N- pyridin-4-yl-benzamide [Compound 309] | – | – | IC50 (PKC epsilon; [2]): 0.5 to 5 µM; IC50 (human ROCKα/ROCKII mix; [2]): 0.05 to 0.5 µM |
| NC(CNC(=O)CC1CC1)c1ccc(C(=O)Nc2ccncc2)cc1 (stereo not drawn) [Compound 46, 4-[1-Amino-2-(2-cycopropyl-acetylamino)-ethyl]-N-pyridin-4-yl-benzamide] | – | – | IC50 (PKC epsilon; [1]): 0.5 to 5 µM; IC50 (human ROCKα/ROCKII mix; [1]): 0.5 to 5 µM |
| NC(CNC(=O)C(c1ccccc1)C1CCCC1)c1ccc(C(=O)Nc2ccncc2)cc1 (stereo not drawn) [Compound 136, 4-[1-Amino-2-(2-cyclopentyl-2-phenyl-acetylamino)-ethyl]-N-pyridin-4-yl-bennzamide] | – | – | IC50 (PKC epsilon; [1]): 5 to 50 µM; IC50 (human ROCKα/ROCKII mix; [1]): 0.5 to 5 µM |
| NC(CNC(=O)c1cccc(Cl)c1)c1ccc(C(=O)Nc2ccncc2)cc1 (stereo not drawn) [Compound 89, 4-[1-amino-2-(3-chloro-benzoylamino)-ethyl]-N-pyridin-4-yl-benzamide] | – | – | IC50 (PKC epsilon; [1]): 0.5 to 5 µM; IC50 (human ROCKα/ROCKII mix; [1]): 0.5 to 5 µM |
| 4-(1-Amino-2-{[2-(3-fluoro-4- methoxy-phenyl)-acetyl]- methyl- amino}-ethyl)- N-pyridin-4-yl-benzamide [Compound 470] | 5 to 50 µM | 0.5 to 5 µM | – |
| NC(CC(=O)NCCc1c(Cl)cccc1Cl)c1ccc(C(=O)Nc2ccncc2)cc1 (stereo not drawn) [Compound 302] | – | – | IC50 (PKC epsilon; [2]): 0.5 to 5 µM; IC50 (human ROCKα/ROCKII mix; [2]): 0.05 to 0.5 µM |
| Cc1cc(Cl)ccc1NC(=O)NCC(N)c1ccc(C(=O)Nc2ccncc2)cc1 (stereo not drawn) [Compound 26, 4-{1-amino-2-[3-(4-chloro-2-methyl-phenyl)-ureido]-ethyl}-N-pyridin-4-yl-benzamide] | 0.05 to 0.5 µM | 0.05 to 0.5 µM | – |
| COc1ccc2c(c1)CCCC2C(=O)NCC(N)c1ccc(C(=O)Nc2ccncc2)cc1 (stereo not drawn) [Compound 355, 6-Methoxy-1,2,3,4-tetrahydro-naphthalene-1-carboxylic acid {2-amino-2-[4-(pyridin-4-ylcarbamoyl)-phenyl]-ethyl}-amide] | – | – | IC50 (PKC epsilon; [1]): 0.05 to 0.5 µM; IC50 (human ROCKα/ROCKII mix; [1]): 0.05 to 0.5 µM |
| NC(CNC(=O)NC1CCCCC1)c1ccc(C(=O)Nc2ccncc2)cc1 (stereo not drawn) [Compound 5, 4-[1-amino-2-(3-cyclohexyl-ureido)-ethyl]-N-pyridin-4-yl-benzamide] | 5 to 50 µM | 0.5 to 5 µM | – |
| CCSCC(=O)NCC(N)c1ccc(C(=O)Nc2ccncc2)cc1 (stereo not drawn) [Compound 63, 4-[1-amino-2-(2-ethylsulfanyl-acetylamino)-ethyl]-N-pyridin-4-yl-benzamide] | – | – | IC50 (PKC epsilon; [1]): 0.5 to 5 µM; IC50 (human ROCKα/ROCKII mix; [1]): 0.05 to 0.5 µM |
| COCC(C)NC(=O)CC(N)c1ccc(C(=O)Nc2ccncc2)cc1 (stereo not drawn) [Compound 181, 4-[1-amino-2-(2-methoxy-1-methyl-ethylcarbamoyl)-ethyl]-N-pyridin-4-yl-benzamide] | – | – | IC50 (PKC epsilon; [2]): 0.5 to 5 µM; IC50 (human ROCKα/ROCKII mix; [2]): 0.05 to 0.5 µM |
| Chroman-4-carboxylic acid {2-amino-2-[4-(pyridin-4- ylcarbamoyl)-phenyl]-ethyl}- methyl-amide [Compound 514] | 5 to 50 µM | 0.5 to 5 µM | – |

| Compound | IC50 (PKC epsilon) | IC50 (human ROCKα/ROCKII mix) | further results |
| --- | --- | --- | --- |
| CC(C)(C(=O)NCC(N)c1ccc(C(=O)Nc2ccncc2)cc1)c1ccc(Cl)cc1F (stereo not drawn) [Compound 388, 4-{1-Amino-2-[2-(4-chloro-2-fluoro-phenyl)-2-methyl-propionylamino]-ethyl}-N-pyridin-4-yl-benzamide] | – | – | IC50 (PKC epsilon; [1]): < 0.05 µM; IC50 (human ROCKα/ROCKII mix; [1]): 0.05 to 0.5 µM |
| Cc1ccc(CNC(=O)NCC(N)c2ccc(C(=O)Nc3ccncc3)cc2)cc1 (stereo not drawn) [Compound 8, 4-{1-amino-2-[3-(4-methyl-benzyl)-ureido]-ethyl}-N-pyridin-4-yl-benzamide] | 0.5 to 5 µM | 0.05 to 0.5 µM | – |
| Cc1ccc(CNC(=O)CC(N)c2ccc(C(=O)Nc3ccncc3)cc2)cc1Cl (stereo not drawn) [Compound 249, 4-[1-Amino-2-(3-chloro-4-methyl-benzylcarbamoyl)-ethyl]-N-pyridin-4-yl-benzamide] | – | – | IC50 (PKC epsilon; [2]): 0.5 to 5 µM; IC50 (human ROCKα/ROCKII mix; [2]): 0.05 to 0.5 µM |
| 4-(1-Amino-2-{[2-(3-chloro- phenyl)-acetyl]-methyl- amino}-ethyl)- N-pyridin-4-yl-benzamide [Compound 459] | 5 to 50 µM | 0.5 to 5 µM | – |
| NC(c1ccc(C(=O)Nc2ccncc2)cc1)C1CCCN1C(=O)Cc1cccc(Cl)c1F (stereo not drawn) [Compound 602, 4-(Amino-{1-[2-(3-chloro-2-fluoro-phenyl)-acetyl]-pyrrolidin-2-yl}-methyl)-N-pyridin-4-yl-benzamide] | 5 to 50 µM | 0.5 to 5 µM | – |
| COc1ccc(C2(C(=O)NCC(N)c3ccc(C(=O)Nc4ccncc4)cc3)CCCC2)cc1 (stereo not drawn) [Compound 344, 4-(1-Amino-2-{[1-(4-methoxy-phenyl)-cyclopentanecarbonyl]-amino}-ethyl)-N-pyridin-4-yl-benzamide] | – | – | IC50 (PKC epsilon; [1]): 0.05 to 0.5 µM; IC50 (human ROCKα/ROCKII mix; [1]): 0.05 to 0.5 µM |
| 4-{1-Amino-2-[(2-1H-indol-3- yl-acetyl)-methyl- amino]-ethyl}- N-pyridin-4-yl-benzamide [Compound 443] | 5 to 50 µM | 0.5 to 5 µM | – |
| CC(NC(=O)CC(N)c1ccc(C(=O)Nc2ccncc2)cc1)c1cccc2ccccc12 (stereo not drawn) [Compound 229, 4-{1-Amino-2-(1-naphtalen-1-yl-ethylcarbamoyl)-ethyl]-N-pyridin-4-yl-benzamide] | – | – | IC50 (PKC epsilon; [2]): 0.5 to 5 µM; IC50 (human ROCKα/ROCKII mix; [2]): 0.05 to 0.5 µM |
| NC(c1ccc(C(=O)Nc2ccncc2)cc1)C1CCCN1C(=O)C1CCSc2ccccc21 (stereo not drawn) [Compound 618, 4-{Amino[1-(thiochroman-4-carbonyl)-pyrrolidin-2-yl]-methyl}-N-pyridin-4-yl-benzamide] | 0.5 to 5 µM | 0.5 to 5 µM | – |
| CC1=C(C(=O)NCC(N)c2ccc(C(=O)Nc3ccncc3)cc2)Cc2ccccc21 (stereo not drawn) [Compound 165, 3-Methyl-1H-indene-2-carboxylic acid {2-amino-2-[4-(pyridin-4-ylcarbamoyl)-phenyl]-ethyl}-amide] | – | – | IC50 (PKC epsilon; [1]): 0.5 to 5 µM; IC50 (human ROCKα/ROCKII mix; [1]): 0.5 to 5 µM |
| 4-{1-Amino-2-[methyl-(1- thiophen-2-yl- cyclopropanecarbonyl)- amino]-ethyl}- N-pyridin-4-yl-benzamide [Compound 448] | 5 to 50 µM | 0.5 to 5 µM | – |
| COC(=O)C(C)NC(=O)CC(N)c1ccc(C(=O)Nc2ccncc2)cc1 (stereo not drawn) [Compound 182] | – | – | IC50 (PKC epsilon; [2]): 0.5 to 5 µM; IC50 (human ROCKα/ROCKII mix; [2]): 0.05 to 0.5 µM |
| CC(C)(C)c1ccc(NC(=O)NCC(N)c2ccc(C(=O)Nc3ccncc3)cc2)cc1 (stereo not drawn) [Compound 24, 4-{1-amino-2-[3-(4-tert-butyl-phenyl)-ureido]-ethyl}-N-pyridin-4-yl-benzamide] | 5 to 50 µM | 0.5 to 5 µM | – |
| N[C@H](CC(=O)N[C@H]1COc2ccccc21)c1ccc(C(=O)Nc2ccncc2)cc1 [Compound 406, 4-{(R)-1-Amino-2-[(R)-(2,3-dihydro-benzofuran-3-yl)carbamoyl]-ethyl}-N-pyridin-4-yl-benzamide] | 0.05 to 0.5 µM | 0.05 to 0.5 µM | – |
| 4-{1-Amino-2-[methyl-(2- methyl-2-thiophen-3-yl- propionyl)- amino]-ethyl}- N-pyridin-4-yl-benzamide [Compound 449] | 5 to 50 µM | 0.5 to 5 µM | – |
| NC(CC(=O)NCc1ccccc1C(F)(F)F)c1ccc(C(=O)Nc2ccncc2)cc1 (stereo not drawn) [Compound 263, 4-[1-Amino-2-(2-trifluoromethyl-benzylcarbamoyl)-ethyl]-N-pyridin-4-yl-benzamide] | – | – | IC50 (PKC epsilon; [2]): 0.5 to 5 µM; IC50 (human ROCKα/ROCKII mix; [2]): 0.05 to 0.5 µM |
